In publication PMC11858715 (Molecules, 2025) one finds Kd data, which are given here for four substances.

The target of assay [1] is S2 (YIYRNYPDF), sense peptide surrogate of AtxA neurotoxic site (Vipera ammodytes ammodytes, UniProt P00626). Kind of assay: biochemical. The class given is binding. Particulars: 100% DMSO; 25 °C; read-out: KD (σ).
In assay [2] the target is S1 (GMMILG), sense peptide surrogate of AtxA neurotoxic site (Vipera ammodytes ammodytes, UniProt P00626). Kind of assay: biochemical. It is filed as binding. Particulars: 100% DMSO; 25 °C; read-out: KD (σ).

No end group written: not given here.

Regarding “INISIVGVK [S2A1, Ile-Asn-Ile-Ser-Ile-Val-Gly-Val-Lys]”, the Kd in assay [1] amounted to 1.1 µM.

With SHHYEP [S1A1, Ser-His-His-Tyr-Glu-Pro], the Kd in assay [2] amounted to 4.9 µM.

For the substance SHHYSP [S1A2, Ser-His-His-Tyr-Ser-Pro], in assay [2], the Kd is 1.4 µM.

For the substance “VNISVIGIK [S2A2, Val-Asn-Ile-Ser-Val-Ile-Gly-Ile-Lys]”, in assay [1], the Kd amounted to 8.9 µM.
